Assay results from patent US10703740B2, “Substituted benzimidazoles, their preparation and their use as pharmaceuticals” (NEOMED Institute, priority 2015, dated 2020).

The molecules below were run on human C-Myc transcription in MV-4-11 cells (assay: Transcription of human C-Myc in human leukemic MV-4-11 cells (QuantiGene 2.0)). Details: Homo sapiens, MV4-11, 4 h, inhibition of C-Myc mRNA, 4 hours treatment, read-out: IC50 MV-4-11 Cell.
Format: cell-based
Method: The effect of compounds on transcription of human C-Myc gene is monitored in human B-myelomonocytic leukemia cell line MV-4-11 (from American Type Culture Collection (ATCC), Manassas, Va., USA) using QuantiGene 2.0 assay kit (Affymetrix, Santa Clara, Calif., USA).
Typically, 8,000 MV-4-11 cells are plated in sterile 96-well plates (Costar #3598 from Fisher Scientific Canada, Ottawa, Ontario, Canada) in Iscove's medium supplemented with 10% fetal bovine serum, glutamine (2 mM), and penicillin (100 I.U.) and streptomycin (100 μg/mL) (all from Wisent Inc., St. Bruno, Quebec, Canada). Compounds are dissolved in DMSO at 30 mM. A series of 1:3 dilutions are first made in DMSO, and further 1:100 dilutions are made in serum-containing cell culture media. The final concentration of DMSO is 0.1% in cell culture media. After cells are treated with various concentrations of test compound for 4 hours, cells are lysed using Quantigene 2.0 sample processing kit (# QS0100). C-Myc mRNA is detected using a QuantiGene 2.0 assay kit (# QS0009) with gene-specific probe to human C-Myc (# SA-50182) following the manufacturer's recommendations. Luminescene signals are read on Flexstation II microplate reader (Molecular Devices, Sunnyvale, Calif., USA).

Molecule | IC50 [nM]
Cc1cc(-c2ccc3nc([C@H]4CCCO4)n(CCOC(F)(F)F)c3c2)cn(C)c1=O (stereo in doubt) [Compound 30a, 1,3-dimethyl-5-[2-tetrahydrofuran-2-yl-3-[2-(trifluoromethoxy)ethyl]benzimidazol-5-yl]pyridin-2-one] | 200
Cc1cc(-c2ccc3nc([C@@H]4CCCO4)n(CCOC(F)(F)F)c3c2)cn(C)c1=O (stereo in doubt) [Compound 30b, 1,3-dimethyl-5-[2-tetrahydrofuran-2-yl-3-[2-(trifluoromethoxy)ethyl]benzimidazol-5-yl]pyridin-2-one] | 87
CCc1cc(-c2ccc3nc(C4CC4)n(CCOC(F)(F)F)c3c2)cn(C)c1=O [Compound 14, 5-(2 cyclopropyl-3-(2-(trifluoromethoxy)ethyl)benzimidazol-5-yl)-3-ethyl-1-methylpyridin-2-one] | 250
COC[C@H](C)n1c(C2CC2)nc2ccc(-c3cc(C)c(=O)n(C)c3)cc21 [Compound 17, 5-[2-cyclopropyl-3-[(1S)-2-methoxy-1-methylethyl]benzimidazol-5-yl]-1,3-dimethyl pyridin-2-one] | 810
COC[C@H](C)n1c(C2CCOCC2)nc2ccc(-c3cc(C)c(=O)n(C)c3)cc21 [Compound 18, 5-[3-[(1S)-2-methoxy-1-methylethyl]-2-tetrahydropyran-4-yl-benzimidazol-5-yl]-1,3-dimethylpyridin-2-one] | 170
Cn1cc(-c2ccc3nc(C4CC4)n(CCOC(F)(F)F)c3c2)cc(C2CC2)c1=O [Compound 19, 3-cyclopropyl-5-[2-cyclopropyl-3-[2-(trifluoromethoxy)ethyl]benzimidazol-5-yl]-1-methylpyridin-2-one] | 870
CNc1cc(-c2ccc3nc(C4CC4)n(CCOC(F)(F)F)c3c2)cn(C)c1=O [Compound 20, 5-[2-cyclopropyl-3-[2-(trifluoromethoxy)ethyl]benzimidazol-5-yl]-1-methyl-3-(methylamino)pyridin-2-one] | 240

Same assay, conditions: inhibition of C-Myc mRNA, 4 hours treatment, read-out: IC50 MV-4-11 Cell

Molecule | IC50 [nM]
5-[2-(3-methoxycyclobutyl)-1-(2-(2,2,2-trifluoroethoxy)ethyl)-1H-benzo[d]imidazol-6-yl]-1,3-dimethylpyridin-2(1H)-one [Compound 63] | 17
COC(C)Cn1c(C2CC2)nc2ccc(-c3cc(C)c(=O)n(C)c3)cc21 (single isomer, unassigned) [Compound 23a, 5-[2-cyclopropyl-3-(2-methoxypropyl)benzimidazol-5-yl]-1,3-dimethylpyridin-2-one] | 250
COC(C)Cn1c(C2CC2)nc2ccc(-c3cc(C)c(=O)n(C)c3)cc21 (single isomer, unassigned) [Compound 23b, 5-[2-cyclopropyl-3-(2-methoxypropyl)benzimidazol-5-yl]-1,3-dimethylpyridin-2-one] | 730
Cc1cc(-c2ccc3nc(C4CCOC4)n(CCOC(F)(F)F)c3c2)cn(C)c1=O (single isomer, unassigned) [Compound 29a, 1,3-dimethyl-5-[2-tetrahydrofuran-3-yl-3-[2-(trifluoromethoxy)ethyl]benzimidazol-5-yl]pyridin-2-one] | 220
Cc1cc(-c2ccc3nc(C4CCOC4)n(CCOC(F)(F)F)c3c2)cn(C)c1=O (single isomer, unassigned) [Compound 29b, 1,3-dimethyl-5-[2-tetrahydrofuran-3-yl-3-[2-(trifluoromethoxy)ethyl]benzimidazol-5-yl]pyridin-2-one] | 77
COC(C)Cn1c(C2CCOCC2)nc2ccc(-c3cc(C)c(=O)n(C)c3)cc21 (single isomer, unassigned) [Compound 35a, 5-[3-(2-methoxypropyl)-2-tetrahydropyran-4-yl-benzimidazol-5-yl]-1,3-dimethyl pyridin-2-one] | 180
COC(C)Cn1c(C2CCOCC2)nc2ccc(-c3cc(C)c(=O)n(C)c3)cc21 (single isomer, unassigned) [Compound 35b, 5-[3-(2-methoxypropyl)-2-tetrahydropyran-4-yl-benzimidazol-5-yl]-1,3-dimethyl pyridin-2-one] | 86
